We go through 20 molecules from US7074789B2, “Kinase inhibitors” (Amgen Inc., priority 1999, dated 2006).

Assay type in all cases: biochemical
In experiment [1] the target is T1, Zap-70 (Homo sapiens, UniProt P43403).
T1 construct: Kinases are expressed as either kinase domains or full length constructs; made in house
T1 sequence (P43403 1-619): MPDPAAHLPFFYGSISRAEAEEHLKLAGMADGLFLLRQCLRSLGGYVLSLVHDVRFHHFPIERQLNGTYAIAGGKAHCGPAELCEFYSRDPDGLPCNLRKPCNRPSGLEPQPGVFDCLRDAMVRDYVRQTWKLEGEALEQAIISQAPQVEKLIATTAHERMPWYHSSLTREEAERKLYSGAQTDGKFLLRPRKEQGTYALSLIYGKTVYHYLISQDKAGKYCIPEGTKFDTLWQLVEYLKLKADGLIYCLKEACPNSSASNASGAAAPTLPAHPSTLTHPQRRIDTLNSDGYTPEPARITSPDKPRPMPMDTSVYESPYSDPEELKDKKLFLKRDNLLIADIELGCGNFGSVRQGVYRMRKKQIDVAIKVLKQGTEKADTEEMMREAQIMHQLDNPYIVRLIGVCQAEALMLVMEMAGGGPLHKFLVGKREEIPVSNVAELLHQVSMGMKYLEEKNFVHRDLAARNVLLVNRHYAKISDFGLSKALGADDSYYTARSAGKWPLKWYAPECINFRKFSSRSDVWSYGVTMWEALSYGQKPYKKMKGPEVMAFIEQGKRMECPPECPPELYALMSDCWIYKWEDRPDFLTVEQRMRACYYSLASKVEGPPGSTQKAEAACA
Description: Kinase inhibition assay (33P transfer), Zap-70. To be noted: Table 3; read-out: Zap-1. In outline: (§1)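 Each kinase, expressed as a GST- or polyHis-tagged domain or full-length protein, phosphorylated plate-attached poly(Glu,Tyr) 4:1 or poly(Arg,Ser) 3:1 using 33P-ATP. Bound radioactivity was measured by scintillation after a 0.5% phosphoric acid wash.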

In experiment [2] the target is T2, Src (Homo sapiens, UniProt P12931).
T2 construct: Kinases are expressed as either kinase domains or full length constructs; made in house
T2 sequence (P12931 whole entry, species assumed, the tested form may be a part): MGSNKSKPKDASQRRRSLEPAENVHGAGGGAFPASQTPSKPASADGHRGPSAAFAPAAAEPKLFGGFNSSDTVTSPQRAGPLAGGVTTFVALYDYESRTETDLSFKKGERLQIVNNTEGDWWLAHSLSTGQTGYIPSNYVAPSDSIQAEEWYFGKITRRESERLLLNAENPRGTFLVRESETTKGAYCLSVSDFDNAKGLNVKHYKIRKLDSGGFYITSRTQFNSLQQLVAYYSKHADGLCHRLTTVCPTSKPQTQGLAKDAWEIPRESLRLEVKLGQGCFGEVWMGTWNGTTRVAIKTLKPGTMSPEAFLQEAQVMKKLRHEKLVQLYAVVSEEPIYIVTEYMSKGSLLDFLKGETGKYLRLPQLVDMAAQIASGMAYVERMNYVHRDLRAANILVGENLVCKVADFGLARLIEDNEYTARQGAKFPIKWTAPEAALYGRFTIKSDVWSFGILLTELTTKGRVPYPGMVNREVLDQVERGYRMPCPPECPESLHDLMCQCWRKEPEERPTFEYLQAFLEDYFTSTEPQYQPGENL
Description: Kinase inhibition assay (33P transfer), Src. To be noted: Table 6, Src-1 kinase inhibition class. The method in brief: (§2)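 IC50: inhibitor concentration lowering 33P incorporation into immobilised substrate by 50%. Label transferred from ATP to poly(Glu,Tyr) 4:1 or poly(Arg,Ser) 3:1 is measured after a 0.5% phosphoric acid wash by liquid scintillation.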

Experiment [3] deals with T3, Kdr (Homo sapiens, UniProt P35968).
T3 construct: Kinases are expressed as either kinase domains or full length constructs; made in house
T3 sequence (P35968 20-1356, species assumed): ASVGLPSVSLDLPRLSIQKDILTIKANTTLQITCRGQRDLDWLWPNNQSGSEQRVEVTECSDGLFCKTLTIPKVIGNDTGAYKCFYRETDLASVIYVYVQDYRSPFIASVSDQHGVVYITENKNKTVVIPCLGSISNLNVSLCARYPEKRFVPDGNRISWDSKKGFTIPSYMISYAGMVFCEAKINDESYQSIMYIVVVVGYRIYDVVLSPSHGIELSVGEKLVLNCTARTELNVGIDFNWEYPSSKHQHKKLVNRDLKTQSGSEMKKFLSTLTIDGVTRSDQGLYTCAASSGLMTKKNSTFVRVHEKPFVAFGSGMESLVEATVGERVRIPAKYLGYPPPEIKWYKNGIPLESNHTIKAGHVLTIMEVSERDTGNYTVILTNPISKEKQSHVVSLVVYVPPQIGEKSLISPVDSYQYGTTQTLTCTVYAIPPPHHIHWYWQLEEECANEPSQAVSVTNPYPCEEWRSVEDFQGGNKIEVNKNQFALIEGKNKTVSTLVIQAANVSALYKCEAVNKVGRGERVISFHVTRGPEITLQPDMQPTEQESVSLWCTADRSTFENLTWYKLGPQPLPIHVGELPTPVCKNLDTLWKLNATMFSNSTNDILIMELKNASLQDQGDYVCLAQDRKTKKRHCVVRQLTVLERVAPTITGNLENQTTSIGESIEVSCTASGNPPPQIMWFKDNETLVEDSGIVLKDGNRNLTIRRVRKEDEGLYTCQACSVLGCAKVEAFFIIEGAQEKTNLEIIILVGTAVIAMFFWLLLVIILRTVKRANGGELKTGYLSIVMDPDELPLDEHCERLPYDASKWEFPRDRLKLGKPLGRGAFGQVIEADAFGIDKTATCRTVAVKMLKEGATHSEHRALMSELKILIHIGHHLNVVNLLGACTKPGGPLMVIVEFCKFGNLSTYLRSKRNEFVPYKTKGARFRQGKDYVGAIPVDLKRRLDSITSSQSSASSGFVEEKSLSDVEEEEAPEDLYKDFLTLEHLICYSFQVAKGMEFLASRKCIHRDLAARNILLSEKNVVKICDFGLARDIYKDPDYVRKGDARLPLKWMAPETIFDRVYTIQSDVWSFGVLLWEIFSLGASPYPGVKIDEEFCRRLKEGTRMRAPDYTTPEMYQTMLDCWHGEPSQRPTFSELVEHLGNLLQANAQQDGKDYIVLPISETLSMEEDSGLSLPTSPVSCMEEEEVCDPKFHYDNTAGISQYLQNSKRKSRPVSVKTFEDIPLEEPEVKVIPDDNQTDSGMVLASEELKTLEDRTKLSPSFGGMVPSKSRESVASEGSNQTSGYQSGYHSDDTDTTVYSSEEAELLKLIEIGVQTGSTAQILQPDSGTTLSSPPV
Description: Kinase inhibition assay (33P transfer), Kdr. The note with it: Table 3; read-out: KDR-1. The method in brief:
as §1

Experiment [4] concerns the target T4, AKT (Homo sapiens, UniProt Q9Y243).
T4 construct: Kinases are expressed as either kinase domains or full length constructs; made in house
Description: Kinase inhibition assay (33P transfer), AKT. To be noted: Table 2, kinase inhibition class; read-out: AKT3-1. The method in brief:
as §1

The target in experiment [5] is T5, EPHB4 (Homo sapiens, UniProt P54760).
T5 construct: Kinases are expressed as either kinase domains or full length constructs; made in house
T5 sequence (P54760 16-987): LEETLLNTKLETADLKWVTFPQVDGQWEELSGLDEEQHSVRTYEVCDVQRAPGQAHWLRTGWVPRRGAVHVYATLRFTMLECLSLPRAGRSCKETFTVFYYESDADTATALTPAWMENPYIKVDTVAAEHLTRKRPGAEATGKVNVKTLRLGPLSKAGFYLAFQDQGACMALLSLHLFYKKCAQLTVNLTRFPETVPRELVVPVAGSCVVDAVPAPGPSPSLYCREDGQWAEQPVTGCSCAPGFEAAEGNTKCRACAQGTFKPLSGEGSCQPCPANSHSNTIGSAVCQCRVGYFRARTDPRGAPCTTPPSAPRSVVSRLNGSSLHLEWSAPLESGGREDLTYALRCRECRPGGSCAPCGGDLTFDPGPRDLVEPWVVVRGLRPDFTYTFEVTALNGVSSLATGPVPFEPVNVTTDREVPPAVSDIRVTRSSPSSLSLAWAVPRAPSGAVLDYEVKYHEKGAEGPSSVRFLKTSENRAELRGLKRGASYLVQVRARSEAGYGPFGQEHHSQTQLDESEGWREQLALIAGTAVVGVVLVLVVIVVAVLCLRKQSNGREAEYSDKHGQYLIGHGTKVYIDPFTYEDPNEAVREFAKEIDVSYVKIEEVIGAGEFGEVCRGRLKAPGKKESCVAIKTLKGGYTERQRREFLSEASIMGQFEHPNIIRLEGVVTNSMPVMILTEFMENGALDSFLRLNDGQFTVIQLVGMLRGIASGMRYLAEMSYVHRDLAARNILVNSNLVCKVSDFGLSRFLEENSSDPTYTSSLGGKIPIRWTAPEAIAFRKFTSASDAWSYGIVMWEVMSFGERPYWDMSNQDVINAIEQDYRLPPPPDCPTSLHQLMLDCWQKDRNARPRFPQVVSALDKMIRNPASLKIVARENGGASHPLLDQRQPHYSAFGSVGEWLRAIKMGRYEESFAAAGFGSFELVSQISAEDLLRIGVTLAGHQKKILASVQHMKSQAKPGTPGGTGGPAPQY
In words: Kinase inhibition assay (33P transfer), EPHB4. The note with it: read-out: EPHB4-1.

In experiment [6] the target is T6, Lyn (Homo sapiens, UniProt P07948).
T6 construct: Kinases are expressed as either kinase domains or full length constructs; made in house
T6 sequence (P07948 whole entry, species assumed, the tested form may be a part): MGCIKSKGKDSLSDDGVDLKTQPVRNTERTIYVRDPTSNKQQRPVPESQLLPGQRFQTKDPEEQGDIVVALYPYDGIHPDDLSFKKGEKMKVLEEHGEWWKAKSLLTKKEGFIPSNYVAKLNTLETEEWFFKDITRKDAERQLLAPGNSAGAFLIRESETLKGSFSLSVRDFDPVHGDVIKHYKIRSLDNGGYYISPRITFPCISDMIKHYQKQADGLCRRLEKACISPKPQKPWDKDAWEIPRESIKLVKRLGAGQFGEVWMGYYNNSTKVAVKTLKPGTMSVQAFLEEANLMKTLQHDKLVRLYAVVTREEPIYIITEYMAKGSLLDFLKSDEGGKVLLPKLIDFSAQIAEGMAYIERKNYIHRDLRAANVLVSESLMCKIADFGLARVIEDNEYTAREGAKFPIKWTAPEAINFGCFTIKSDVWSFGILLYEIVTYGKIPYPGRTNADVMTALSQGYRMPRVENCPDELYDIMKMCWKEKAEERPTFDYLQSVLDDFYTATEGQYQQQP
Description: Kinase inhibition assay (33P transfer), Lyn. The note with it: Table 6, Lyn-1 kinase inhibition class. In outline: as §2

In experiment [7] the target is T7, ErbB2 (Homo sapiens, UniProt P04626).
T7 construct: Kinases are expressed as either kinase domains or full length constructs; made in house
T7 sequence (P04626 23-1255, species assumed): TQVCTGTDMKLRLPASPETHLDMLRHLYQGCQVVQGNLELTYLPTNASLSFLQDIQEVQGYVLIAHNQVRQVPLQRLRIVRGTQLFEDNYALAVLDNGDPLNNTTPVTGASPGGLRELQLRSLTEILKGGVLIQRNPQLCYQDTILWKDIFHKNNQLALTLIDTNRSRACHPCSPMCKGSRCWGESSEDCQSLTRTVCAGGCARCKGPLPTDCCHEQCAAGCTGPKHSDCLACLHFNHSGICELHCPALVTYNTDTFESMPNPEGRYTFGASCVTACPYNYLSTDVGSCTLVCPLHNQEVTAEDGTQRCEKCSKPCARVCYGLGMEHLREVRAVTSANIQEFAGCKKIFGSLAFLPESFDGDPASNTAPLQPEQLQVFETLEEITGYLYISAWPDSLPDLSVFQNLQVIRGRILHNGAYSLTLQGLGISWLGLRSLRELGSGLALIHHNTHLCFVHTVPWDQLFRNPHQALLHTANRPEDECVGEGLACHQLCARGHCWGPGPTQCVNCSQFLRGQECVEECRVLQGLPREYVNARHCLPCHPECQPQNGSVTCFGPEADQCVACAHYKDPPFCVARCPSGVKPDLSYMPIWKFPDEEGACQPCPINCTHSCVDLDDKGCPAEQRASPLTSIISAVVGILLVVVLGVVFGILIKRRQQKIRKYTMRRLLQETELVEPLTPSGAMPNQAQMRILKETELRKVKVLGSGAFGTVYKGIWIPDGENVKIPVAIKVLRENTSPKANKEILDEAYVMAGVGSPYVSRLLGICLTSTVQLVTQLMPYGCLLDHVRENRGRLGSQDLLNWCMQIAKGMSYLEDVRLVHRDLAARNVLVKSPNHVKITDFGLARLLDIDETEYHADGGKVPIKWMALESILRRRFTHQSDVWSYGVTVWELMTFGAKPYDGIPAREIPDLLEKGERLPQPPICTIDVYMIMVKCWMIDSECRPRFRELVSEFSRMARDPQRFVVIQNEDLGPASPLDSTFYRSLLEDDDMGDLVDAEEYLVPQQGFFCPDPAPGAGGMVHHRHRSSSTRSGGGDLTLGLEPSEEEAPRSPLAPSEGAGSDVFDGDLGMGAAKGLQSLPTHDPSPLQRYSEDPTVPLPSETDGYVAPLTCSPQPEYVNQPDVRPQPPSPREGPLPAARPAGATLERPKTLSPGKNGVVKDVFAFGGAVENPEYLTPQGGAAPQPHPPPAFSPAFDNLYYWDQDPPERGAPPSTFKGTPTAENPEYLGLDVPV
Description: Kinase inhibition assay (33P transfer), ErbB2. The note with it: read-out: ErbB2-2. In outline: as §2

Where only a bound is given, the exact number is not on record here.

T4 sequence (Q9Y243 whole entry, the tested form may be a part): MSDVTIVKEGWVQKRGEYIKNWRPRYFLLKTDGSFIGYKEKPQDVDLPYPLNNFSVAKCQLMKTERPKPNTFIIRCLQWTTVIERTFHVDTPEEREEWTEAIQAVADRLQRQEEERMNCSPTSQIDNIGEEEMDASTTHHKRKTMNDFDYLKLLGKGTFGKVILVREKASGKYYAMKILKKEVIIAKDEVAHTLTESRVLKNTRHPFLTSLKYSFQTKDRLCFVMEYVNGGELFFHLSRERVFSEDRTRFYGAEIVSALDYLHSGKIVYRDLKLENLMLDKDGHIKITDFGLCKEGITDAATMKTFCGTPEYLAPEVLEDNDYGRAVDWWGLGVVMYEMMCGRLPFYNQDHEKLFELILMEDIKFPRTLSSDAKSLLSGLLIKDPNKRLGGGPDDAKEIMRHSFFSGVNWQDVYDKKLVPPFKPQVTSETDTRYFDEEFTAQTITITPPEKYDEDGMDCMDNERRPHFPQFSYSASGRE

Consider `C#Cc1cccc(Nc2ncnc(Nc3cc(OC)c(OC)c(OC)c3)n2)c1` [Compound 74], for which the IC50 in experiment [1] was > 11.9 µM; in experiment [2], 1.06 to 6.36 µM; in experiment [3] it was 1.06 to 6.36 µM; in experiment [4], > 11.9 µM; in experiment [5], < 1.06 µM; in experiment [6], < 1.06 µM.
Regarding `COc1cc(Nc2ncnc(-n3c(Nc4ccc(F)cc4)nc4ccccc43)n2)cc(OC)c1OC` [Compound 387], the IC50 in experiment [1] is > 9.23 µM; in experiment [2], > 9.23 µM; in experiment [3], < 0.821 µM; in experiment [4] it was > 9.23 µM; in experiment [5] it was > 9.23 µM; in experiment [6] it was 0.821 to 4.92 µM.
With `COc1cc(Nc2ncnc(-n3c(Nc4ccc(C)cc4)nc4ccccc43)n2)cc(OC)c1OC` [Compound 385], the IC50 in experiment [1] is > 9.31 µM; in experiment [2], > 9.31 µM; in experiment [3] it was < 0.827 µM; in experiment [4], > 9.31 µM; in experiment [5], > 9.31 µM; in experiment [6] it was 0.827 to 4.96 µM.
Take `COc1cc(Nc2ncnc(-n3c(Nc4ccccc4C)nc4ccccc43)n2)cc(OC)c1OC` [Compound 384]: the IC50 was > 9.31 µM in experiment [1]; > 9.31 µM in experiment [2]; < 0.827 µM in experiment [3]; > 9.31 µM in experiment [4]; 0.827 to 4.96 µM in experiment [5]; < 0.827 µM in experiment [6].
For the molecule `COc1cc(Nc2ncnc(Nc3cc(-c4ccc(Cl)cc4)n[nH]3)n2)cc(OC)c1OC` [Compound 367], the IC50 in experiment [1] was > 9.91 µM; in experiment [2], 0.881 to 5.29 µM; in experiment [3], < 0.881 µM; in experiment [4], > 9.91 µM; in experiment [5] it was 0.881 to 5.29 µM; in experiment [6], 0.881 to 5.29 µM.
Regarding `COc1cc(Nc2ncnc(-n3c(Cl)nc4ccccc43)n2)cc(OC)c1OC` [Compound 378], the IC50 is > 10.9 µM in experiment [1]; 5.81 to 8.48 µM in experiment [2]; < 0.969 µM in experiment [3]; > 10.9 µM in experiment [4]; > 10.9 µM in experiment [5]; 0.969 to 5.81 µM in experiment [6].
Consider `NC(=O)c1cccc(Nc2ncnc(-n3c(N)nc4ccccc43)n2)c1` [Compound 395], for which the IC50 is > 13 µM in experiment [1]; 10.1 to 13 µM in experiment [2]; < 1.15 µM in experiment [3]; 10.1 to 13 µM in experiment [4]; > 13 µM in experiment [5]; 10.1 to 13 µM in experiment [6].
Take `COc1cc(Nc2ncnc(-c3c(O)[nH]c4ccccc34)n2)cc(OC)c1OC` [Compound 380]: the IC50 was > 11.4 µM in experiment [1]; > 11.4 µM in experiment [2]; < 1.02 µM in experiment [3]; > 11.4 µM in experiment [4]; > 11.4 µM in experiment [5]; 1.02 to 6.1 µM in experiment [6].
With `NC(=O)c1ccc(Nc2ncnc(-n3c(N)nc4ccccc43)n2)cc1` [Compound 396], the IC50 was > 13 µM in experiment [1]; > 13 µM in experiment [2]; < 1.15 µM in experiment [3]; 6.93 to 10.1 µM in experiment [4]; 1.15 to 6.93 µM in experiment [5]; 1.15 to 6.93 µM in experiment [6].
On to `COc1cc(Nc2ncnc(-n3c(Nc4cccc(C(N)=O)c4)nc4ccccc43)n2)cc(OC)c1OC` [Compound 377], for which the IC50 is 0.78 to 4.68 µM in experiment [1]; > 8.78 µM in experiment [2]; 0.78 to 4.68 µM in experiment [3]; > 8.78 µM in experiment [4]; 0.78 to 4.68 µM in experiment [5]; > 8.78 µM in experiment [6].
Regarding `COC(=O)c1cccc(Nc2nc3ccccc3n2-c2ncnc(Nc3cc(OC)c(OC)c(OC)c3)n2)c1` [Compound 383], the IC50 in experiment [1] was > 8.53 µM; in experiment [3], 0.758 to 4.55 µM; in experiment [7], 4.55 to 6.63 µM; in experiment [4], > 8.53 µM; in experiment [5], > 8.53 µM.
Regarding `COc1cc(Nc2ncnc(-c3ccnc(NCCCO)c3)n2)cc(OC)c1OC` [Compound 180], the IC50 was > 10.9 µM in experiment [1]; > 10.9 µM in experiment [2]; 0.97 to 5.82 µM in experiment [3]; > 10.9 µM in experiment [4]; > 10.9 µM in experiment [5]; 0.97 to 5.82 µM in experiment [6].
As for `COc1cc(Nc2ncnc(N(c3ccc(Cl)cc3)c3nc4ccccc4[nH]3)n2)cc(OC)c1OC` [Compound 374], the IC50 in experiment [1] is > 8.93 µM; in experiment [2], < 0.794 µM; in experiment [3], < 0.794 µM; in experiment [4], > 8.93 µM; in experiment [5], < 0.794 µM; in experiment [6], < 0.794 µM.
In the case of `COc1cc(Nc2ncnc(Nc3cc(C)[nH]n3)n2)cc(OC)c1OC` [Compound 88], the IC50 was > 12.6 µM in experiment [1]; 1.12 to 6.72 µM in experiment [2]; < 1.12 µM in experiment [3]; > 12.6 µM in experiment [4]; 1.12 to 6.72 µM in experiment [5]; 1.12 to 6.72 µM in experiment [6].
For `COc1cc(Nc2ncnc(Nc3ccc(N4CCOCC4)cc3)n2)cc(OC)c1OC` [Compound 101], the IC50 in experiment [1] was > 10.3 µM; in experiment [2], 0.912 to 5.47 µM; in experiment [3] it was 0.912 to 5.47 µM; in experiment [4], > 10.3 µM; in experiment [5] it was > 10.3 µM; in experiment [6] it was 5.47 to 7.98 µM.
On to `COc1cccc(-c2ncnc(Nc3cc(OC)c(OC)c(OC)c3)n2)c1` [Compound 232], for which the IC50 was > 12.2 µM in experiment [1]; > 12.2 µM in experiment [2]; 1.09 to 6.51 µM in experiment [3]; > 12.2 µM in experiment [4]; > 12.2 µM in experiment [5]; > 12.2 µM in experiment [6].
As for `COc1cc(Nc2ncnc(Nc3cc(-c4ccccc4)nn3C)n2)cc(OC)c1OC` [Compound 394], the IC50 in experiment [1] was > 10.4 µM; in experiment [2] it was 0.923 to 5.54 µM; in experiment [3], < 0.923 µM; in experiment [4], > 10.4 µM; in experiment [5] it was 5.54 to 8.07 µM; in experiment [6], < 0.923 µM.
For `COc1cc(Nc2ncnc(-n3c(Nc4ccc(C(C)C)cc4)nc4ccccc43)n2)cc(OC)c1OC` [Compound 388], the IC50 in experiment [1] was > 8.8 µM; in experiment [2], > 8.8 µM; in experiment [3], 0.782 to 4.69 µM; in experiment [4] it was > 8.8 µM; in experiment [5], > 8.8 µM; in experiment [6] it was 0.782 to 4.69 µM.
In the case of `COc1cc(Nc2ncnc(Nc3ccc4c(c3)Cc3ccccc3-4)n2)cc(OC)c1OC` [Compound 95], the IC50 in experiment [1] is 7.93 to 10.2 µM; in experiment [2], > 10.2 µM; in experiment [3], 0.906 to 5.44 µM; in experiment [4], > 10.2 µM; in experiment [5], 7.93 to 10.2 µM; in experiment [6], 5.44 to 7.93 µM.
With `COc1cc(Nc2ncnc(-n3c(Nc4cccc(C)c4)nc4ccccc43)n2)cc(OC)c1OC` [Compound 386], the IC50 is > 9.31 µM in experiment [1]; > 9.31 µM in experiment [2]; < 0.827 µM in experiment [3]; > 9.31 µM in experiment [4]; > 9.31 µM in experiment [5]; > 9.31 µM in experiment [6].
